According to US12036200B2, “Bismuth-thiol compositions and methods for treating wounds” (Microbion Corporation, priority 2018, dated 2024):
Entries after “also recorded” stand apart in the source; their conditions may differ.

What was measured:
[1] = test system: subjects with a moderate to severe DFI; assay: Phase 1b/2a DFI study (Example 7): clinical response; assay type: in vivo, human; conditions: MITT Population, BisEDT dose groups vs placebo
Protocol: Methodology: This was a randomized, double-blind, placebo-controlled, multicenter study that was planned to be conducted in 2 parts. In Part 1, subjects were enrolled into escalating dose cohorts (BisEDT at concentrations of 150, 375, and 750 μg/mL resulting in doses of 3, 7.5, and 15 μg/cm^2) (N=16 per cohort) at a ratio of 3:1 (BisEDT to placebo).
In Part 1, subjects received either topical application of BisEDT or topical application of placebo, applied directly to the infected ulcer, 3 times per week, for a minimum of 2 weeks (ie, 6 doses) and up to a maximum of 3 weeks (ie, 9 doses). […] The determination to stop topical BisEDT therapy after a minimum of 2 weeks (ie, 6 doses) was at the discretion of the Principal Investigator and based on the resolution of clinical findings of infection.
Efficacy: The following clinical and microbiological efficacy outcomes were assessed: • Proportion of subjects with a clinical cure of infection 2 weeks following the end of dosing, TOC with BisEDT or placebo. […]
At the TOC, EOT, and EOS visits, the cure rate (cured vs not cured) was analyzed using an Exact Logistic Regression model with covariates for treatment dose group, the 8-item baseline wound score, and the interaction of treatment group and baseline wound score. […]

[2] = Phase 1b/2a DFI study (Example 7): pharmacokinetic evaluation, blood concentration of bismuth; assay type: in vivo, human; conditions: topical BisEDT 3, 7.5, 15 μg/cm^2; whole blood concentrations
Protocol: The primary objective of Part 1 of this study and the planned primary objective of Part 2 of this study was to evaluate the safety and tolerability of topically administered BisEDT composition as adjunct to standard of care (including systemic antibiotic therapy) in subjects with a moderate to severe DFI. […]
The mean bismuth concentration by day for the PK Concentration Population included: 8 subjects on Day 1 predose (only 2 subjects with detectable levels of 0.582 and 0.548 ng/mL, hypothesized to be from undisclosed use of bismuth containing medications or from dressings containing bismuth, such as Xeroform®, as blood was collected before treatment with BisEDT); 8 subjects on Day 3 predose (only 1 subject with a detectable level of 0.525 ng/mL); 8 subjects on Day 5 predose (only 1 subject with a detectable level of 0.701 ng/mL); and 8 subjects on Day 8 predose (only 1 subject with a detectable level of 0.513 ng/mL). […] Bismuth levels were not measured in samples that were erroneously processed to plasma by the 1 site that enrolled the majority of the subjects in the PK study, as bismuth levels are expected to be 15 to 20 times lower in plasma samples compared to whole blood samples and would be well below the lower limit of quantitation for the assay method; no PK parameters were calculated.

[3] = Phase 1b/2a DFI study (Example 7): safety and tolerability; assay type: in vivo, human
Description: The primary objective of Part 1 of this study and the planned primary objective of Part 2 of this study was to evaluate the safety and tolerability of topically administered BisEDT composition as adjunct to standard of care (including systemic antibiotic therapy) in subjects with a moderate to severe DFI. The secondary objectives of Part 1 of this study and the planned secondary objectives of Part 2 of this study were: To evaluate the effect of adjunctive BisEDT composition on resolution of infection; To evaluate the effect of adjunctive BisEDT composition on eradication of pathogens; To evaluate the effect of BisEDT composition on eradication of biofilms; To evaluate the effect of BisEDT composition on wound healing; To evaluate the effect of BisEDT composition for the prevention of lower extremity amputations; To evaluate the effect of BisEDT composition for the prevention of infection related surgery; To evaluate the effect of BisEDT composition on duration of systemic antibiotic use; To evaluate the effect of BisEDT composition on length of hospital stay; To evaluate the systemic absorption and pharmacokinetics of topically administered BisEDT composition.

[4] = Particle size of microparticulate BisEDT, Nanosizer/Zetasizer Nano-S (Example 1); assay type: physicochemical; conditions: resuspended in 2% Pluronic F-68, sonicated
Protocol: The dried particulate matter was characterized to assess the particle size properties. Briefly, microparticles were resuspended in 2% Pluronic® F-68 (BASF, Mt. Olive, NJ) and the suspension was sonicated for 10 minutes in a water bath sonicator at standard setting prior to analysis using a Nanosizer/Zetasizer Nano-S particle analyzer (model ZEN1600 (without zeta-potential measuring capacity), Malvern Instruments, Worcestershire, UK) according to the manufacturer's recommendations.

[5] = test system: subjects with a moderate to severe DFI; assay: Phase 1b/2a DFI study (Example 7): microbiological response, colonization, reinfection, relapse; assay type: in vivo, human
Protocol: Efficacy: The following clinical and microbiological efficacy outcomes were assessed: • Proportion of subjects with a clinical cure of infection 2 weeks following the end of dosing, TOC with BisEDT or placebo. Subjects were classified into one of the following groups: cured (resolution of all clinical signs and symptoms of infection or sufficient improvement such that additional antimicrobial therapy was not required), failure (insufficient resolution of at least one of the initial signs and symptoms of infection, or the need for any additional or alternative antimicrobial therapy, or the need for surgical treatment of the infection), or indeterminate (assessment not possible for any reason). • Proportion of subjects with a clinical cure at EOT with BisEDT or placebo. • Proportion of subjects with a confirmed or presumed microbiological cure 2 weeks following the end of dosing, TOC. Subjects were classified into one of the following groups: confirmed eradication (all of the original pathogens were absent), presumed eradication (there was no available material for culture but the infection clinically responded to treatment), persistence (presence of a pathogen isolated at baseline), or indeterminate (inability to determine microbiological response). • Proportion of subjects with a confirmed or presumed microbiological cure at the EOT and EOS. At the EOS visit, additional classification groups included: colonization (isolation of a new organism that was not present on the initial culture but the wound was not clinically infected); reinfection (isolation of a new organism that was not present on the initial culture and the wound was clinically infected) or relapse (the same organism that was present on the initial culture was again isolated, after an intervening confirmed [sterile culture] or presumed [no material to culture] microbiological response and the wound was clinically infected). • Change from baseline in the Biofilm Score at EOT and TOC. • Proportion of subjects that underwent lower-extremity amputation involving the infected foot. • Proportion of subjects needing any infection-related surgery (ie, lower-extremity amputation, incision and drainage of a new abscess, or soft tissue or bone resection) after treatment had started. • Change from baseline in the 8-item DFI wound score at EOT, TOC, and EOS. • Percent reduction in ulcer size at EOS and each study visit.
Microbiological Response: The distribution of microbiological response outcome categories (confirmed eradication, presumed eradication, persistence, and indeterminate) are descriptively summarized by treatment group using counts and percentages at the TOC, EOT, and EOS visits. The eradication rate (confirmed+presumed vs the rest) was analyzed using the same methodology as clinical response. Analyses are presented for the ME Population.
Colonization, Reinfection, and Relapse: At the EOS visit, the number and percentage of subjects with a colonization, reinfection, or relapse are tabulated by treatment group for the ME Population.
Microbiologic assessment. Cultures were collected at baseline and as needed for the treatment of the subject. Tissue samples were shipped to a central laboratory where the presence of viable microorganisms was determined by standard microbiological culture methods and included speciation. […] The susceptibility of bacterial isolates to BisEDT was also determined, but was not reported to investigators.

[6] = test system: subjects with a moderate to severe DFI; assay: Phase 1b/2a DFI study (Example 7): biofilm score; assay type: in vivo, human; conditions: ME Population, BisEDT dose groups vs placebo
Description: Biofilm Response: The distribution of absolute scores at the EOT and TOC visits are descriptively summarized using counts and percentages by treatment group. Treatments were compared using the Cochran Mantel Haenszel mean score test statistic, and the p-value is presented. Additionally, shift tables showing individual subject changes from baseline to EOT and TOC visits are presented. Analyses are presented for the ME Population.
Biofilm response: The following categories were used: score 0, no bacteria observed; 1, single individual cells; 2, small micro-colonies (˜10 cells); 3, large micro-colonies (˜100 cells); 4, continuous film; 5, thick continuous film. Subjects with no debridement material as a result of their DFI healing were given a score of 0. The distribution of absolute scores at the EOT and TOC visits are descriptively summarized using counts and percentages by treatment group. Treatments were compared using the Cochran Mantel Haenszel mean score test statistic, and the p-value is presented. Additionally, a shift table showing individual subject changes from baseline to EOT and TOC visits is presented. Analyses are presented for the ME Population.

[7] = test system: Staphylococcus aureus (S. aureus); assay: Staphylococcus aureus mouse model: efficacy of BisEDT on spleen and wound titer (Example 4); assay type: in vivo
Protocol: Establishment of Mouse Model: A luminescent strain of Staphylococcus aureus (S. aureus) was administered intravenously to adult, female, Swiss Webster mice and 48 hours was allowed for a biofilm to form. Mice were treated daily intravenously with 100 μL of serial dilutions of BisEDT. In this example, BisEDT was used as a suspension (w:v) (e.g. 150, 375, or 750 μg/mL) of drug particles in diluent, which is composed of 3% methylcellulose/0.5% polysorbate 80/10 mM sodium chloride/10 mM sodium phosphate, pH 7.4.
Imaging Studies: Mice were imaged using Silhouette to determine wound size and volume, and In Vivo Imaging Systems (IVIS) Lumina X5 to quantitate bioluminescence.
Terminal colony forming units (CFU) were determined by plating homogenized tissue from the wound bed and in the spleen. Mice were euthanized and wound tissue and spleens were harvested. Tissue samples were weighed and placed into microtubes containing sterile phosphate buffer and homogenized. The homogenate was then serially diluted and plated to determine CFU/g tissue.
An initial study evaluated the effect of BisEDT suspension on CFUs in the spleen and wound bed. The study occurred over 11 days with 9 days of treatment. The BisEDT suspension was administered to 30 (n=5 mice/group) mice at concentrations of 2500, 250, 25, 2.5, 0.25, 0.25, 0.025 μg/mL. A comparator control was vehicle, or diluent, and 50% DMSO in PBS.
A subsequent study evaluated the effect of higher concentrations of BisEDT suspension on CFUs in the spleen and wound bed. The study occurred over 12 days with 10 days of treatment. BisEDT suspension was administered to 20 (n=5 mice/group) at concentrations of 10, 5, 2.5, and 0.75 mg/mL. A negative control was mice that were untreated, and a positive control was mice that were treated with Prontosan. […] Complete inhibition was observed compared to the untreated control (FIG. 3). Further, treatment with 5 mg/mL BisEDT reduced CFUs by 1.5-2 logs, greater than the positive prontosan control.

[8] = test system: Patients with Moderate to Severe Diabetic Foot Infection; assay: Phase 1b/2a study of topical BisEDT: wound surface area by 3D digital photographs (Example 6); assay type: in vivo, human; conditions: end of treatment, test of cure and end of study
Protocol: Adjunctive local administration of BisEDT was tested for its efficacy in resolving both infection and critical colonization, thereby removing these barriers to wound repair and closure. This represents a fundamental, clinically meaningful benefit.
Topical BisEDT suspension and placebo were used in combination with SOC systemic antibiotics (such as levofloxacin) for a duration of 2-3 weeks. […] BisEDT, when used in conjunction with systemic antibiotics, for a duration of […] (3× per week) may be beneficial in resolving both infection and critical colonization, therefore enabling wound repair and closure, a fundamental, clinically meaningful benefit.

[9] = topical doses of 3, 7.5, and 15 μg/cm^2
[10] = EOS visit, ME Population, BisEDT dose groups vs placebo

C1C[S][Bi]([S]CC[S][Bi]2[S]CC[S]2)[S]1 [BisEDT, bismuth-1,2-ethanedithiol]
clinical response, comparison of treatment groups ([1]; EOT visit): No difference between treatment groups was observed | clinical response, comparison of treatment groups ([1]; TOC visit): No difference between treatment groups was observed | systemic exposure [2]: very little systemic exposure; also recorded: does not appear to exhibit any relevant systemic exposure; also recorded: limited systemic exposure | TEAEs and SAEs related to study drug [3, 9]: None of the TEAEs and SAEs occurring in the study were considered related to study drug | safety signals [3, 9]: No safety signals were identified | safety and tolerability ([3]; topical doses of 3, 7.5, and 15 μg/cm^2, 3 times per week, 2-3 weeks): safe and well tolerated | peak VMD [4]: about 1.3 microns | colonization, reinfection, and relapse, comparison of treatment groups [5, 10]: No difference between treatment groups was observed | microbiological response, comparison of treatment groups [5, 10]: No difference between treatment groups was observed | microbiological response, comparison of treatment groups ([5]; EOT visit, ME Population, BisEDT dose groups vs placebo): No difference between treatment groups was observed | microbiological response, comparison of treatment groups ([5]; TOC visit, ME Population, BisEDT dose groups vs placebo): No difference between treatment groups was observed | reduction of reinfection or relapse with BisEDT compared to placebo ([5]; all dose groups combined 12.5% vs placebo 33.3%, EOS visit): approximately one-third | biofilm response, comparison of treatment groups ([6]; EOT visit): No difference in biofilm response at the EOT visit between treatment groups was observed | biofilm response, comparison of treatment groups ([6]; TOC visit): No difference in biofilm response at the TOC visit between treatment groups was observed | mice exhibiting no infection (spleen) ([7]; 2.5 mg/mL BisEDT (FIG. 4)): three | reduction of wound titer compared to diluent ([7]; 2500 μg/mL BisEDT suspension, mice, 9 days of treatment (FIG. 1)): approximately five | reduction of CFU compared to untreated control ([7]; 10 mg/mL BisEDT, mice, 10 days of treatment, complete inhibition (FIG. 3)): more than eight | proportion of subjects with >50% reduction in wound surface area from baseline, compared to placebo [8]: larger proportion
